Data from ChEMBL document CHEMBL5335839, “Synthesis and structure-activity relationship of novel thiazole aminoguanidines against MRSA and Escherichia coli” (RSC Med Chem, 2024).
pIC50: −log10 of the molar value. ≈ marks a conversion by molar mass, not a printed value. Calls of active or inactive are those of the source. The calls are words filed in the database; no cut-off is given here.

Experiments:
Escherichia coli [1] = test: Ratio of MBC to MIC against Escherichia coli ATCC 8739 measured after 24 hrs; assay type: functional
Escherichia coli [2] = test: Antibacterial activity against Escherichia coli ATCC 8739 incubated for 24 hrs by broth microdilution method; assay type: functional
Staphylococcus aureus [3] = test: Ratio MBC to MIC against Staphylococcus aureus ATCC 6538P measured after 24 hrs; assay type: functional
Staphylococcus aureus [4] = test: Antibacterial activity against Staphylococcus aureus ATCC 6538P incubated for 24 hrs by broth microdilution method; assay type: functional
Staphylococcus aureus [5] = test: Induction of resistance development in methicillin resistant Staphylococcus aureus ATCC 33591 assessed as fold increase in MIC incubated for 24 hrs and measured at 10th generation relative to first generation; assay type: functional
Staphylococcus aureus [6] = test: Bactericidal activity against methicillin resistant Staphylococcus aureus ATCC 33591 at 1 to 4 times MIC incubated for 24 hrs by time kill assay; assay type: functional, organism-based
Staphylococcus aureus [7] = test: Ratio MBC to MIC methicillin resistant Staphylococcus aureus ATCC 33591 measured after 24 hrs; assay type: functional
Staphylococcus aureus [8] = test: Antibacterial activity against methicillin resistant Staphylococcus aureus ATCC 33591 incubated for 24 hrs by broth dilution method; assay type: functional
[9] = Hemolytic activity in rabbit RBC assessed as hemolysis rate at 10 times MIC incubated for 3 hrs by ultraviolet spectrophotometry analysis relative to control; assay type: toxicity, cell-based, Oryctolagus cuniculus, Erythrocyte; conditions: rabbit red blood cells (erythrocytes), read-out: Activity
Staphylococcus aureus [10] = test: Potency index, ratio of norfloxacin MIC to test compound MIC for antibacterial activity against methicillin resistant Staphylococcus aureus ATCC 33591 incubated for 24 hrs by broth dilution method; assay type: functional
Staphylococcus aureus [11] = test: Inhibition of biofilm formation in methicillin resistant Staphylococcus aureus ATCC 33591 at 0.25 times MIC incubated for 24 hrs by crystal violet staining based assay relative to control; assay type: functional
Escherichia coli [12] = test: (§1) Inhibition of Escherichia coli ATCC 8739 UPPS using farnesyl pyrophosphate and isopentenyl pyrophosphate as a substrates preincubated for 30 min followed by EcPPA addition and measured after 30 min by malachite green dye based absorbance analysis; conditions: time 60.0 min
[13] = as §1
[14] = Hemolytic activity in rabbit RBC assessed as hemolysis rate at 8 times MIC incubated for 3 hrs by ultraviolet spectrophotometry analysis relative to control; assay type: toxicity, cell-based, Oryctolagus cuniculus, Erythrocyte; conditions: rabbit red blood cells (erythrocytes), read-out: Activity
Staphylococcus aureus [15] = test: Anti-biofilm activity against methicillin resistant Staphylococcus aureus ATCC 33591 assessed as biofilm eradication at MIC incubated for 24 hrs by crystal violet staining based assay relative to control; assay type: functional
[16] = Hemolytic activity in rabbit RBC assessed as hemolysis rate at 2 times MIC incubated for 3 hrs by ultraviolet spectrophotometry analysis relative to control; assay type: toxicity, cell-based, Oryctolagus cuniculus, Erythrocyte; conditions: rabbit red blood cells (erythrocytes), read-out: Activity
Staphylococcus aureus [17] = test: Bactericidal activity against methicillin resistant Staphylococcus aureus ATCC 33591 at 1 times MIC measured after 4 hrs by time kill assay; assay type: functional
Staphylococcus aureus [18] = test: Bactericidal activity against methicillin resistant Staphylococcus aureus ATCC 33591 at 2 to 4 times MIC measured after 2 hrs by time kill assay; assay type: functional
[19] = Hemolytic activity in rabbit RBC assessed as hemolysis rate at 6 times MIC incubated for 3 hrs by ultraviolet spectrophotometry analysis relative to control; assay type: toxicity, cell-based, Oryctolagus cuniculus, Erythrocyte; conditions: rabbit red blood cells (erythrocytes), read-out: Activity
Staphylococcus aureus [20] = test: Anti-biofilm activity against methicillin resistant Staphylococcus aureus ATCC 33591 assessed as biofilm eradication incubated for 24 hrs by crystal violet staining based assay; assay type: functional, organism-based
[21] = Hemolytic activity in rabbit RBC assessed as hemolysis rate at 4 times MIC incubated for 3 hrs by ultraviolet spectrophotometry analysis relative to control; assay type: toxicity, cell-based, Oryctolagus cuniculus, Erythrocyte; conditions: rabbit red blood cells (erythrocytes), read-out: Activity
Staphylococcus aureus [22] = test: Inhibition of biofilm formation in methicillin resistant Staphylococcus aureus ATCC 33591 at 0.5 times MIC incubated for 24 hrs by crystal violet staining based assay relative to control; assay type: functional
Escherichia coli [23] = test: Noncompetitive inhibition of Escherichia coli ATCC 8739 UPPS using varying concentrations of farnesyl pyrophosphate as substrate assessed as decrease in Vmax with constant Km at 0 to 64 microg/mL incubated for 30 mins by Lineweaver-Burk plot analysis; conditions: dose 0-64 µg/ml

In the case of `CCn1cc(C(=O)O)c(=O)c2cc(F)c(N3CCNCC3)cc21` [NORFLOXACIN], the Ratio (Escherichia coli [1]) was >8, the MIC (Escherichia coli [2]) was 0.12 µg/mL (≈ 0.376 µM) and the Ratio (Staphylococcus aureus [3]) was 1. The MIC (Staphylococcus aureus [4]) was 0.25 µg/mL (≈ 0.783 µM), the “fold change (FC)” value (Staphylococcus aureus [5]) was 4 and the Activity (Staphylococcus aureus [6]) was “inactive”. The Ratio (Staphylococcus aureus [7]) was >2 and the MIC (Staphylococcus aureus [8]) was 64 µg/mL (≈ 200 µM).
With `COc1ccc(-c2ccc(/C=N/Nc3nc(C)c(/C(C)=N/NC(=N)N)s3)cc2)cc1` the Ratio (Escherichia coli [1]) was >1, the MIC (Escherichia coli [2]) was 128 µg/mL (≈ 304 µM) and the Ratio (Staphylococcus aureus [3]) was >1. For the same compound, the hemolysis at 3 h, 10 x MIC [9] was < 5%, the MIC (Staphylococcus aureus [4]) was 32 µg/mL (≈ 75.9 µM) and the Ratio (Staphylococcus aureus [7]) was 1. The MIC (Staphylococcus aureus [8]) was 32 µg/mL (≈ 75.9 µM).
`C/C(=N\NC(=N)N)c1sc(N/N=C/c2ccc(-c3ccc(C(F)(F)F)cc3)cc2)nc1C` gave a Ratio (Escherichia coli [1]) of 1, an MIC (Escherichia coli [2]) of 8 µg/mL (≈ 17.4 µM) and a Ratio (Staphylococcus aureus [3]) of 1. The hemolysis at 3 h, 10 x MIC [9] was < 5%, the Ratio (Staphylococcus aureus [10]) was 8 and the MIC (Staphylococcus aureus [4]) was 16 µg/mL (≈ 34.8 µM). It also gave an MIC (Staphylococcus aureus [8]) of 8 µg/mL (≈ 17.4 µM).
`C/C(=N\NC(=N)N)c1sc(N/N=C/c2ccccc2O)nc1C` showed a Ratio (Escherichia coli [1]) of 1, an MIC (Escherichia coli [2]) of 64 µg/mL (≈ 193 µM) and a Ratio (Staphylococcus aureus [3]) of 1. The hemolysis at 3 h, 10 x MIC [9] was < 5%, the MIC (Staphylococcus aureus [4]) was 32 µg/mL (≈ 96.6 µM) and the MIC (Staphylococcus aureus [8]) was 64 µg/mL (≈ 193 µM).
In the case of `C/C(=N\NC(=N)N)c1sc(N/N=C/c2ccc(-c3cccs3)s2)nc1C`, the “inhibition (INH)” value (Staphylococcus aureus [11]) was 44%, the Ratio (Escherichia coli [1]) was 1 and the inhibition (Escherichia coli [12]) was “Dose-Dependent Effect”. It also gave a pIC50 [13] of 3.84, a hemolysis at 3 h, 8 x MIC [14] of 1.3% and an Activity (Staphylococcus aureus [15]) of 70%. The MIC (Escherichia coli [2]) was 8 µg/mL (≈ 19.8 µM), the hemolysis at 3 h, 2 x MIC [16] was 2.6% and the Activity (Staphylococcus aureus [17]) was 100%. The Activity (Staphylococcus aureus [18]) was 100%, the Ratio (Staphylococcus aureus [3]) was 2 and the hemolysis at 3 h, 10 x MIC [9] was 3.3%. For the same compound, the hemolysis at 3 h, 6 x MIC [19] was 1.7%, the Ratio (Staphylococcus aureus [10]) was 8 and the MIC (Staphylococcus aureus [4]) was 2 µg/mL (≈ 4.96 µM). The Activity (Staphylococcus aureus [20]) was “Dose-Dependent Effect”, the “fold change (FC)” value (Staphylococcus aureus [5]) was 2 and the hemolysis at 3 h, 4 x MIC [21] was 2.1%. The Ratio (Staphylococcus aureus [7]) was 1, the “inhibition (INH)” value (Staphylococcus aureus [22]) was 59% and the MIC (Staphylococcus aureus [8]) was 8 µg/mL (≈ 19.8 µM). For the same compound, the inhibition (Escherichia coli [23]) was “Dose-Dependent Effect”.
With `C/C(=N\NC(=N)N)c1sc(N/N=C/c2ccc(N3CCCC3)cc2)nc1C` the Ratio (Escherichia coli [1]) was 4, the MIC (Escherichia coli [2]) was 32 µg/mL (≈ 83.2 µM) and the Ratio (Staphylococcus aureus [3]) was 1. For the same compound, the hemolysis at 3 h, 10 x MIC [9] was < 5%, the MIC (Staphylococcus aureus [4]) was 32 µg/mL (≈ 83.2 µM) and the MIC (Staphylococcus aureus [8]) was 32 µg/mL (≈ 83.2 µM).
`C/C(=N\NC(=N)N)c1sc(N/N=C/c2ccc(-c3ccc(F)cc3)cc2)nc1C` gave a Ratio (Escherichia coli [1]) of 4, an MIC (Escherichia coli [2]) of 16 µg/mL (≈ 39.1 µM) and a Ratio (Staphylococcus aureus [3]) of 1. For the same compound, the hemolysis at 3 h, 10 x MIC [9] was < 5%, the Ratio (Staphylococcus aureus [10]) was 16 and the MIC (Staphylococcus aureus [4]) was 4 µg/mL (≈ 9.77 µM). The MIC (Staphylococcus aureus [8]) was 4 µg/mL (≈ 9.77 µM).
`C/C(=N\NC(=N)N)c1sc(N/N=C/C=C/c2c(F)cccc2F)nc1C` showed a Ratio (Escherichia coli [1]) of 1, an MIC (Escherichia coli [2]) of 32 µg/mL (≈ 84.8 µM) and a Ratio (Staphylococcus aureus [3]) of 1. For the same compound, the hemolysis at 3 h, 10 x MIC [9] was < 5%, the MIC (Staphylococcus aureus [4]) was 128 µg/mL (≈ 339 µM) and the MIC (Staphylococcus aureus [8]) was 32 µg/mL (≈ 84.8 µM).
`C/C(=N\NC(=N)N)c1sc(N/N=C/c2cccc(F)c2F)nc1C` gave a Ratio (Escherichia coli [1]) of 2, an MIC (Escherichia coli [2]) of 64 µg/mL (≈ 182 µM) and a Ratio (Staphylococcus aureus [3]) of 2. For the same compound, the hemolysis at 3 h, 10 x MIC [9] was < 5%, the MIC (Staphylococcus aureus [4]) was 16 µg/mL (≈ 45.5 µM) and the Ratio (Staphylococcus aureus [7]) was 1. For the same compound, the MIC (Staphylococcus aureus [8]) was 16 µg/mL (≈ 45.5 µM).
`C/C(=N\NC(=N)N)c1sc(N/N=C/c2cccc(O)c2)nc1C` showed a Ratio (Escherichia coli [1]) of 1, an MIC (Escherichia coli [2]) of 32 µg/mL (≈ 96.6 µM) and a Ratio (Staphylococcus aureus [3]) of 2. The hemolysis at 3 h, 10 x MIC [9] was < 5%, the MIC (Staphylococcus aureus [4]) was 8 µg/mL (≈ 24.1 µM) and the Ratio (Staphylococcus aureus [7]) was 1. For the same compound, the MIC (Staphylococcus aureus [8]) was 32 µg/mL (≈ 96.6 µM).
Compound `C/C(=N\NC(=N)N)c1sc(N/N=C/c2ccc(O)cc2)nc1C` has a Ratio (Escherichia coli [1]) of 1, an MIC (Escherichia coli [2]) of 64 µg/mL (≈ 193 µM) and a Ratio (Staphylococcus aureus [3]) of 2. The hemolysis at 3 h, 10 x MIC [9] was < 5%, the MIC (Staphylococcus aureus [4]) was 32 µg/mL (≈ 96.6 µM) and the Ratio (Staphylococcus aureus [7]) was >1. It also gave an MIC (Staphylococcus aureus [8]) of 128 µg/mL (≈ 386 µM).
In the case of `C/C(=N\NC(=N)N)c1sc(N/N=C/c2cc(F)ccc2F)nc1C`, the Ratio (Escherichia coli [1]) was 1, the MIC (Escherichia coli [2]) was 16 µg/mL (≈ 45.5 µM) and the Ratio (Staphylococcus aureus [3]) was 1. For the same compound, the hemolysis at 3 h, 10 x MIC [9] was < 5%, the Ratio (Staphylococcus aureus [10]) was 8 and the MIC (Staphylococcus aureus [4]) was 8 µg/mL (≈ 22.8 µM). It also gave an MIC (Staphylococcus aureus [8]) of 8 µg/mL (≈ 22.8 µM).
For `C/C(=N\NC(=N)N)c1sc(N/N=C/c2cc(O)cc(O)c2)nc1C`, the Ratio (Escherichia coli [1]) was 1, the MIC (Escherichia coli [2]) was 32 µg/mL (≈ 92.1 µM) and the Ratio (Staphylococcus aureus [3]) was 1. For the same compound, the hemolysis at 3 h, 10 x MIC [9] was < 5%, the MIC (Staphylococcus aureus [4]) was 32 µg/mL (≈ 92.1 µM) and the MIC (Staphylococcus aureus [8]) was 64 µg/mL (≈ 184 µM).
In the case of `C/C(=N\NC(=N)N)c1sc(N/N=C/c2ccc(-n3cncn3)cc2)nc1C`, the MIC (Escherichia coli [2]) was > 128 µg/mL, the hemolysis at 3 h, 10 x MIC [9] was < 5% and the MIC (Staphylococcus aureus [4]) was > 128 µg/mL. The MIC (Staphylococcus aureus [8]) was > 128 µg/mL.
In the case of `C/C(=N\NC(=N)N)c1sc(N/N=C/c2cncs2)nc1C`, the Ratio (Escherichia coli [1]) was 2, the MIC (Escherichia coli [2]) was 64 µg/mL (≈ 198 µM) and the Ratio (Staphylococcus aureus [3]) was >2. The hemolysis at 3 h, 10 x MIC [9] was < 5%, the MIC (Staphylococcus aureus [4]) was 64 µg/mL (≈ 198 µM) and the Ratio (Staphylococcus aureus [7]) was 2. For the same compound, the MIC (Staphylococcus aureus [8]) was 64 µg/mL (≈ 198 µM).
`C/C(=N\NC(=N)N)c1sc(N/N=C/c2ccccc2F)nc1C` gave a Ratio (Escherichia coli [1]) of 1, an MIC (Escherichia coli [2]) of 16 µg/mL (≈ 48 µM) and a Ratio (Staphylococcus aureus [3]) of 1. For the same compound, the hemolysis at 3 h, 10 x MIC [9] was < 5%, the Ratio (Staphylococcus aureus [10]) was 8 and the MIC (Staphylococcus aureus [4]) was 16 µg/mL (≈ 48 µM). The MIC (Staphylococcus aureus [8]) was 8 µg/mL (≈ 24 µM).
